US11299478B2, “2-cyanopyrimidin-4-yl carbamate or urea derivative or salt thereof, and pharmaceutical composition including same” (HANLIM PHARMACEUTICAL CO., LTD., priority 2018, dated 2022)

How the values were obtained:
Assay type in all cases: biochemical
cathepsin K = target: T1, cathepsin K (Homo sapiens, UniProt P43235); assay: Inhibitory activity assay against cathepsin K (enzyme assay); conditions: Z-Phe-Arg-AMC 10 μM, enzyme 1 nM, pH 5.5, 30 minutes
T1 sequence (P43235 115-329): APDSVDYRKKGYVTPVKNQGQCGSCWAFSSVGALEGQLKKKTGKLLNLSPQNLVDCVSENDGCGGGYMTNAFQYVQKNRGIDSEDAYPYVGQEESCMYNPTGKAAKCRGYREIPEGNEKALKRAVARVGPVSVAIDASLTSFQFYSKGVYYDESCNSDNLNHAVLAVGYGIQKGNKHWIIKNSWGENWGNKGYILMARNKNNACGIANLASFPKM
Outline: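 Fluorogenic assay with 1 nM cathepsin K and 10 μM Z-Phe-Arg-AMC in pH 5.5 buffer (50 mM MES, 2 mM DTT, 2.5 mM EDTA, 0.01% Triton X-100, 10% DMSO). Ten compound concentrations, 10.0 to 0.000508 μM; 30 min reaction, ex 355/em 460 nm; IC50 by 4-parameter logistic fit.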

cathepsin B = cathepsin B (Homo sapiens, UniProt P07858); assay: Inhibitory activity assay against cathepsin B (enzyme assay); conditions: Z-Arg-Arg-AMC 40 μM, enzyme 1 nM, pH 6.0, 90 minutes
Outline: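 1 nM enzyme with 40 μM Z-Arg-Arg-AMC and compound (10.0 μM down to 0.000508 μM, 10 points) in pH 6.0 buffer of 50 mM MES, 5 mM DTT, 2.5 mM EDTA, 0.005% Polysorbate 20, 10% DMSO. Fluorescence (340/460 nm) read after 90 min; IC50 by 4-parameter logistic fit.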

cathepsin L = cathepsin L (Homo sapiens, UniProt P07711); assay: Inhibitory activity assay against cathepsin L (enzyme assay); conditions: Z-Phe-Arg-AMC 2 μM, enzyme 3 nM, pH 5.5, 30 minutes
Outline: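 Enzyme at 3 nM with 2 μM Z-Phe-Arg-AMC in 50 mM MES pH 5.5, 2.5 mM DTT, 2.5 mM EDTA, 0.005% Polysorbate 20, 10% DMSO; 30 min reaction, AMC fluorescence 340/460 nm. Ten-point series 10.0 μM to 0.000508 μM; IC50 by 4-parameter logistic fit.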

cathepsin S = cathepsin S (Homo sapiens, UniProt P25774); assay: Inhibitory activity assay against cathepsin S (enzyme assay); conditions: Z-Phe-Arg-AMC 70 μM, enzyme 3 nM, pH 6.5, 45 minutes
Outline: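 Cathepsin S (3 nM final) with Z-Phe-Arg-AMC substrate (70 μM final) in pH 6.5 buffer of 50 mM MES, 2.5 mM DTT, 1.0 mM EDTA, 0.001% BSA, 10% DMSO; compound 10.0 μM down to 0.000508 μM, 10 points. Fluorescence (ex 340/em 460 nm) after 45 min; IC50 by 4-parameter logistic fit.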

Chain of cathepsin S (P25774 115-331, species assumed): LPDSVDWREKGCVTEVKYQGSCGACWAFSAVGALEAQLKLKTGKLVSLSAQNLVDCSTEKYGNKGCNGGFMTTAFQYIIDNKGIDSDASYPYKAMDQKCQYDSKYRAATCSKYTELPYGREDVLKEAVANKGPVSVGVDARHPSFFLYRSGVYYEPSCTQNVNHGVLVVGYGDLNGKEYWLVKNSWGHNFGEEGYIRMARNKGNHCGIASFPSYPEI
Chain of cathepsin L (P07711 114-333, species assumed): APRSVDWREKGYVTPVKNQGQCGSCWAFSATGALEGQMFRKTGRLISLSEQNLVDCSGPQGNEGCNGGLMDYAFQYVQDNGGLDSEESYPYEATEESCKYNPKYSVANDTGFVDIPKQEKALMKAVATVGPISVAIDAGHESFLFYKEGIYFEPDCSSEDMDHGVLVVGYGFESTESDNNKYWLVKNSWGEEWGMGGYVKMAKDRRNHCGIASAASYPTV

IC50 (cathepsin K) | IC50 (cathepsin B) | IC50 (cathepsin L) | IC50 (cathepsin S) | Compound
64.6 nM | > 10000 nM | > 10000 nM | > 10000 nM | N#Cc1nccc(C2(NC(=O)Nc3cc(F)ccc3C(F)(F)F)CCCC2)n1 [Example 67, 1-(1-(2-cyanopyrimidin-4-yl)cyclopentyl)-3-(5-fluoro-2-(trifluoromethyl)phenyl)urea]
27 nM | > 10000 nM | > 10000 nM | > 10000 nM | N#Cc1nccc(C2(NC(=O)Nc3cccc4ccccc34)CCCC2)n1 [Example 74, 1-(1-(2-cyanopyrimidin-4-yl)cyclopentyl)-3-(naphthalen-1-yl)urea]
41 nM | > 10000 nM | > 10000 nM | > 10000 nM | N#Cc1nccc(C2(NC(=O)Nc3ccc4ccccc4c3)CCCC2)n1 [Example 75, 1-(1-(2-cyanopyrimidin-4-yl)cyclopentyl)-3-(naphthalen-2-yl)urea]
95.1 nM | > 10000 nM | > 10000 nM | > 10000 nM | N#Cc1nccc(C2(NC(=O)Nc3ccc4nccnc4c3)CCCC2)n1 [Example 77, 1-(1-(2-cyanopyrimidin-4-yl)cyclopentyl)-3-(quinoxalin-6-yl)urea]
51.8 nM | > 10000 nM | > 10000 nM | > 10000 nM | N#Cc1nccc(C2(NC(=O)Nc3ccc4c(c3)OCO4)CCCC2)n1 [Example 78, 1-(benzo[d][1,3]dioxol-5-yl)-3-(1-(2-cyanopyrimidin-4-yl)cyclopentyl)urea]
54.5 nM | 7610 nM | > 10000 nM | > 10000 nM | N#Cc1nccc(C2(NC(=O)Nc3ccc4c(c3)CCC4)CCCC2)n1 [Example 82, 1-(1-(2-cyanopyrimidin-4-yl)cyclopentyl)-3-(2,3-dihydro-1H-inden-5-yl)urea]
17 nM | > 10000 nM | > 10000 nM | > 10000 nM | N#Cc1nccc(C2(NC(=O)Nc3cc(C(F)(F)F)ccc3F)CCCC2)n1 [Example 83, 1-(1-(2-cyanopyrimidin-4-yl)cyclopentyl)-3-(2-fluoro-5-(trifluoromethyl)phenyl)urea]
44.3 nM | > 10000 nM | 3410 nM | 1680 nM | Cc1ccc(C)c(NC(=O)NC2(c3ccnc(C#N)n3)CCC(C)(C)CC2)c1 [Example 84, 1-(1-(2-cyanopyrimidin-4-yl)-4,4-dimethylcyclohexyl)-3-(2,5-dimethylphenyl)urea]
28.2 nM | > 10000 nM | > 10000 nM | > 10000 nM | N#Cc1nccc(C2(NC(=O)Nc3ccc(F)c(C(F)(F)F)c3)CCOCC2)n1 [Example 85, 1-(4-(2-cyanopyrimidin-4-yl)tetrahydro-2H-pyran-4-yl)-3-(4-fluoro-3-(trifluoromethyl)phenyl)urea]
38.9 nM | > 10000 nM | 2460 nM | 7110 nM | N#Cc1nccc(C2(NC(=O)Nc3ccccc3)CCCCC2)n1 [Example 86, 1-(1-(2-cyanopyrimidin-4-yl)cyclohexyl)-3-phenylurea]
3.6 nM | > 10000 nM | 898 nM | 6260 nM | Cc1ccc(C)c(NC(=O)NC2(c3ccnc(C#N)n3)CCCCC2)c1 [Example 87, 1-(1-(2-cyanopyrimidin-4-yl)cyclohexyl)-3-(2,5-dimethylphenyl)urea]
31.6 nM | > 10000 nM | 7140 nM | > 10000 nM | N#Cc1nccc(C2(NC(=O)NCc3ccccc3)CCCCC2)n1 [Example 88, 1-benzyl-3-(1-(2-cyanopyrimidin-4-yl)cyclohexyl)urea]
3.8 nM | > 10000 nM | 6890 nM | > 10000 nM | N#Cc1nccc(C2(NC(=O)Nc3cccc(C(F)(F)F)c3)CCCCC2)n1 [Example 89, 1-(1-(2-cyanopyrimidin-4-yl)cyclohexyl)-3-(3-(trifluoromethyl)phenyl)urea]
68.2 nM | > 10000 nM | > 10000 nM | > 10000 nM | N#Cc1nccc(C2(NC(=O)Nc3ccc(C(F)(F)F)cc3)CCCCC2)n1 [Example 90, 1-(1-(2-cyanopyrimidin-4-yl)cyclohexyl)-3-(4-(trifluoromethyl)phenyl)urea]
32.2 nM | > 10000 nM | 4770 nM | > 10000 nM | N#Cc1nccc(C2(NC(=O)NCc3ccccc3C(F)(F)F)CCCCC2)n1 [Example 91, 1-(1-(2-cyanopyrimidin-4-yl)cyclohexyl)-3-(2-(trifluoromethyl)benzyl)urea]
40.9 nM | > 10000 nM | > 10000 nM | > 10000 nM | N#Cc1nccc(C2(NC(=O)Nc3ccccc3C(F)(F)F)CCCCC2)n1 [Example 92, 1-(1-(2-cyanopyrimidin-4-yl)cyclohexyl)-3-(2-(trifluoromethyl)phenyl)urea]
23.9 nM | > 10000 nM | > 10000 nM | > 10000 nM | N#Cc1nccc(C2(NC(=O)Nc3ccc(Cl)c(C(F)(F)F)c3)CCCCC2)n1 [Example 93, 1-(4-chloro-3-(trifluoromethyl)phenyl)-3-(1-(2-cyanopyrimidin-4-yl)cyclohexyl)urea]
9 nM | > 10000 nM | 1130 nM | 8240 nM | Cc1ccc(F)c(NC(=O)NC2(c3ccnc(C#N)n3)CCCCC2)c1 [Example 94, 1-(1-(2-cyanopyrimidin-4-yl)cyclohexyl)-3-(2-fluoro-5-methylphenyl)urea]
18.3 nM | > 10000 nM | > 10000 nM | > 10000 nM | N#Cc1nccc(C2(NC(=O)Nc3cc(C(F)(F)F)cc(C(F)(F)F)c3)CCCCC2)n1 [Example 95, 1-(3,5-bis(trifluoromethyl)phenyl)-3-(1-(2-cyanopyrimidin-4-yl)cyclohexyl)urea]
10.2 nM | > 10000 nM | 6500 nM | > 10000 nM | N#Cc1nccc(C2(NC(=O)Nc3ccc(F)c(C(F)(F)F)c3)CCCCC2)n1 [Example 96, 1-(1-(2-cyanopyrimidin-4-yl)cyclohexyl)-3-(4-fluoro-3-(trifluoromethyl)phenyl)urea]
4.9 nM | > 10000 nM | > 10000 nM | > 10000 nM | N#Cc1nccc(C2(NC(=O)Nc3cc(C(F)(F)F)ccc3F)CCCCC2)n1 [Example 97, 1-(1-(2-cyanopyrimidin-4-yl)cyclohexyl)-3-(2-fluoro-5-(trifluoromethyl)phenyl)urea]
61.7 nM | > 10000 nM | > 10000 nM | 4480 nM | N#Cc1nccc(C2(NC(=O)Nc3cc(C(F)(F)F)ccc3C(=O)O)CCCCC2)n1 [Example 98, 2-(3-(1-(2-cyanopyrimidin-4-yl)cyclohexyl)ureido)-4-(trifluoromethyl)benzoic acid]
3.2 nM | > 10000 nM | 1100 nM | > 10000 nM | Cc1ccc(C(F)(F)F)cc1NC(=O)NC1(c2ccnc(C#N)n2)CCCCC1 [Example 99, 1-(1-(2-cyanopyrimidin-4-yl)cyclohexyl)-3-(2-methyl-5-(trifluoromethyl)phenyl)urea]
15.4 nM | > 10000 nM | > 10000 nM | > 10000 nM | N#Cc1nccc(C2(NC(=O)Nc3ccc(Cc4ccccc4)cc3)CCCCC2)n1 [Example 100, 1-(4-benzylphenyl)-3-(1-(2-cyanopyrimidin-4-yl)cyclohexyl)urea]
21.7 nM | > 10000 nM | > 10000 nM | > 10000 nM | N#Cc1nccc(C2(NC(=O)Nc3ccc(Nc4ccccc4)cc3)CCCCC2)n1 [Example 101, 1-(1-(2-cyanopyrimidin-4-yl)cyclohexyl)-3-(4-(phenylamino)phenyl)urea]
63.2 nM | > 10000 nM | 3440 nM | 6240 nM | N#Cc1nccc(C2(NC(=O)Nc3ccccc3O)CCCCC2)n1 [Example 102, 1-(1-(2-cyanopyrimidin-4-yl)cyclohexyl)-3-(2-hydroxyphenyl)urea]
4.6 nM | > 10000 nM | > 10000 nM | > 10000 nM | N#Cc1nccc(C2(NC(=O)Nc3cc(C(F)(F)F)ccc3C(F)(F)F)CCCCC2)n1 [Example 103, 1-(2,5-bis(trifluoromethyl)phenyl)-3-(1-(2-cyanopyrimidin-4-yl)cyclohexyl)urea]
